Assay results from patent publication US20040077580A1, “Antisense modulation of PI3K P85 Expression” (priority 2000, published 2004).
Strand notation (5' to 3'): a small letter for the sugar, then the base; units joined by * are phosphorothioate-linked, units joined directly phosphodiester-linked; [ ] holds rarer units or linkages, { } end groups; capitals alone tell only the bases. e = 2'-O-(2-methoxyethyl) (MOE); [5mC] = 5-methylcytosine; d = 2'-deoxy (DNA)

Assays:
mouse PI3K p85 = assay: Inhibition of mouse PI3K p85 mRNA levels by antisense oligonucleotides, real-time quantitative RT-PCR; format: cell-based; set-up: concentration or dose not given beside the values; settings: chimeric phosphorothioate 2′-MOE gapmers, averaged from two experiments
Method: (§1) Cells were harvested 16 hours after oligonucleotide treatment.
Target sites are indicated by nucleotide numbers, as given in the sequence source reference (Genbank accession no. U50413; SEQ ID NO: 48), to which the oligonucleotide binds.
Cytidine residues are 5-methylcytidines throughout the oligonucleotides.
Data were obtained by real-time quantitative RT-PCR as described in other examples herein and are averaged from two experiments. […] If present, “N.D.” indicates “no data”.

human PI3K p85 RNA = assay: Inhibition of human PI3K p85 mRNA levels by antisense oligonucleotides, real-time quantitative PCR; format: cell-based; settings: oligonucleotide 150 nM
Method: as §1
Poly(A)+ mRNA was isolated according to Miura et al., Clin. Chem., 1996, 42, 1758-1764. Other methods for poly(A)+ mRNA isolation are taught in, for example, Ausubel, F. M. et al., Current Protocols in Molecular Biology, Volume 1, pp. 4.5.1-4.5.3, John Wiley & Sons, Inc., 1993. […] 60 μL lysis buffer (10 mM Tris-HCl, pH 7.6, 1 mM EDTA, 0.5 M NaCl, 0.5% NP-40, 20 mM vanadyl-ribonucleoside complex) was added to each well, the plate was gently agitated and then incubated at room temperature for five minutes. 55 μL of lysate was transferred to Oligo d(T) coated 96-well plates (AGCT Inc., Irvine Calif.). Plates were incubated for 60 minutes at room temperature, washed 3 times with 200 μL of wash buffer (10 mM Tris-HCl pH 7.6, 1 mM EDTA, 0.3 M NaCl). After the final wash, the plate was blotted on paper towels to remove excess wash buffer and then air-dried for 5 minutes. 60 μL of elution buffer (5 mM Tris-HCl pH 7.6), preheated to 70° C. was added to each well, the plate was incubated on a 90° C. hot plate for 5 minutes, and the eluate was then transferred to a fresh 96-well plate.
PI3K p85 probes and primers were designed to hybridize to the human PI3K p85 sequence, using published sequence information (GenBank accession number M61906, incorporated herein as SEQ ID NO: 1).
Target sites are indicated by nucleotide numbers, as given in the sequence source reference (Genbank accession no. M61906), to which the oligonucleotide binds. All compounds in Table 1 are oligodeoxynucleotides with phosphorothioate backbones (internucleoside linkages) throughout. […] Data are averages from two experiments. If present, “N.D.” indicates “no data”.
In accordance with the present invention, a second series of oligonucleotides targeted to human PI3K p85 were synthesized. Target sites are indicated by nucleotide numbers, as given in the sequence source reference (Genbank accession no. M61906), to which the oligonucleotide binds.
Cytidine residues in the 2′-MOE wings are 5-methylcytidines.
Data were obtained by real-time quantitative PCR as described in other examples herein and are averaged from two experiments. If present, “N.D.” indicates “no data”.

[1] = chimeric phosphorothioate oligonucleotides with 2′-MOE wings and deoxy gap, averaged from two experiments
[2] = phosphorothioate oligodeoxynucleotides, averages from two experiments

Substance | % Inhibition of PI3K p85 mRNA levels (human PI3K p85 RNA; [1]) [%] | % Inhibition of PI3K p85 mRNA levels (human PI3K p85 RNA; [2]) [%] | also measured
131420 (antisense e[5mC]*eG*eA*eT*e[5mC]*dT*d[5mC]*dT*d[5mC]*dG*dG*dT*dA*d[5mC]*dT*e[5mC]*eA*eG*e[5mC]*eT) [compound 131420] | – | – | % Inhib. of mouse PI3K p85 mRNA levels (mouse PI3K p85): 79%
131410 (antisense e[5mC]*e[5mC]*eT*eG*eG*d[5mC]*d[5mC]*dA*dT*d[5mC]*dA*d[5mC]*dT*dG*dA*eA*eT*e[5mC]*e[5mC]*eA) [compound 131410] | – | – | % Inhib. of mouse PI3K p85 mRNA levels (mouse PI3K p85): 95%
ccatctgtcctccatcaacg (e[5mC]*e[5mC]*eA*eT*e[5mC]*dT*dG*dT*d[5mC]*d[5mC]*dT*d[5mC]*d[5mC]*dA*dT*e[5mC]*eA*eA*e[5mC]*eG; antisense) [ISIS 131408] | – | – | % Inhib. of mouse PI3K p85 mRNA levels (mouse PI3K p85): at least 60%
131407 (antisense e[5mC]*eG*e[5mC]*eT*e[5mC]*d[5mC]*dA*d[5mC]*dT*d[5mC]*dT*d[5mC]*dA*dG*d[5mC]*eT*eT*e[5mC]*eA*e[5mC]) [compound 131407] | – | – | % Inhib. of mouse PI3K p85 mRNA levels (mouse PI3K p85): 85%
28041 (antisense e[5mC]*e[5mC]*eA*e[5mC]*dC*dA*dC*dT*dA*dC*dA*dG*dA*dG*e[5mC]*eA*eG*eG) [compound 28041] | 38 | – | –
27986 (antisense dA*dG*dT*dA*dG*dG*dT*dT*dT*dT*dG*dG*dT*dG*dG*dT*dT*dT) [compound 27986] | – | 0 | –
28023 (antisense eG*e[5mC]*eT*eT*dG*dA*dA*dG*dA*dA*dA*dT*dG*dT*eT*eT*eT*eA) [compound 28023] | 43 | – | –
28016 (antisense CCAACAAAACAGTCCAAA; DNA, all phosphorothioate, methylation of C not given here) [compound 28016] | – | 6 | –
27992 (antisense TTTCTCATTGCCTTCACG; DNA, all phosphorothioate, methylation of C not given here) [compound 27992] | – | 0 | –
28040 (antisense e[5mC]*e[5mC]*eT*eG*dT*dT*dT*dA*dC*dT*dG*dC*dT*dC*eT*e[5mC]*e[5mC]*e[5mC]) [compound 28040] | 0 | – | –
28043 (antisense eA*eA*eA*eG*dC*dC*dA*dT*dA*dG*dC*dC*dA*dG*eT*eT*eG*e[5mC]) [compound 28043] | 10 | – | –
28014 (antisense CCTTCAGCAAAACAAAAC; DNA, all phosphorothioate, methylation of C not given here) [compound 28014] | – | 24 | –
28035 (antisense eA*eT*eT*eG*dG*dT*dC*dT*dC*dT*dC*dG*dT*dC*eT*eT*eT*e[5mC]) [compound 28035] | 0 | – | –
28001 (antisense CCACCACTACAGAGCAGG; DNA, all phosphorothioate, methylation of C not given here) [compound 28001] | – | 0 | –
28005 (antisense GCCCTTTGCTTTCCAGAG; DNA, all phosphorothioate, methylation of C not given here) [compound 28005] | – | 0 | –
28055 (antisense eA*eA*e[5mC]*eT*dG*dA*dA*dA*dT*dA*dA*dC*dA*dA*e[5mC]*eT*eT*eA) [compound 28055] | 14 | – | –
28012 (antisense ATTCTCCCAAAGCGTCCC; DNA, all phosphorothioate, methylation of C not given here) [compound 28012] | – | 19 | –
28050 (antisense eT*eG*eT*e[5mC]*dT*dG*dG*dG*dT*dC*dC*dA*dC*dC*eG*eT*eG*e[5mC]) [compound 28050] | 57 | – | –
28013 (antisense TTCTGGCACTTTCTATGA; DNA, all phosphorothioate, methylation of C not given here) [compound 28013] | – | 28 | –
27977 (antisense ATCTTCTTCTCTTTCCTT; DNA, all phosphorothioate, methylation of C not given here) [compound 27977] | – | 0 | –
28015 (antisense AACTGAAATAACAACTTA; DNA, all phosphorothioate, methylation of C not given here) [compound 28015] | – | 6 | –

Substance | % Inhibition of PI3K p85 mRNA levels (human PI3K p85 RNA; [1]) [%] | % Inhibition of PI3K p85 mRNA levels (human PI3K p85 RNA; [2]) [%] | also measured
28024 (antisense eG*eG*e[5mC]*eT*dG*dC*dT*dG*dA*dG*dA*dA*dT*dC*eT*eG*eA*eA) [compound 28024] | 59 | – | –
28022 (antisense eA*eT*eT*eT*dC*dA*dC*dT*dG*dT*dA*dA*dA*dC*eG*eG*e[5mC]*eT) [compound 28022] | 69 | – | –
28018 (antisense eG*e[5mC]*eT*eT*dC*dC*dT*dG*dT*dC*dC*dA*dT*dC*eA*e[5mC]*eT*eG) [compound 28018] | 47 | – | –
28048 (antisense e[5mC]*eT*eG*e[5mC]*dC*dT*dC*dT*dC*dT*dC*dT*dC*dC*eT*e[5mC]*e[5mC]*eG) [compound 28048] | 0 | – | –
27998 (antisense GTCTTCAGTGTTTTCATT; DNA, all phosphorothioate, methylation of C not given here) [compound 27998] | – | 0 | –
27982 (antisense ATTTCACTGTAAACGGCT; DNA, all phosphorothioate, methylation of C not given here) [compound 27982] | – | 19 | –
27995 (antisense ATTGGTCTCTCGTCTTTC; DNA, all phosphorothioate, methylation of C not given here) [compound 27995] | – | 0 | –
27987 (antisense TTATTCATACCGTTGTTG; DNA, all phosphorothioate, methylation of C not given here) [compound 27987] | – | 4 | –
27990 (antisense ATTTCCTGGGATGTGCGG; DNA, all phosphorothioate, methylation of C not given here) [compound 27990] | – | 52 | –
28047 (antisense eA*eA*eA*eG*dA*dA*dG*dG*dG*dA*dT*dA*dA*dG*e[5mC]*eA*e[5mC]*eT) [compound 28047] | 18 | – | –
27981 (antisense GTAAGTCCAGGAGATAGC; DNA, all phosphorothioate, methylation of C not given here) [compound 27981] | – | 14 | –
28021 (antisense eG*eT*eA*eA*dG*dT*dC*dC*dA*dG*dG*dA*dG*dA*eT*eA*eG*e[5mC]) [compound 28021] | 43 | – | –
28019 (antisense eT*eT*e[5mC]*eA*dA*dT*dG*dG*dC*dT*dT*dC*dC*dA*e[5mC]*eG*eA*eG) [compound 28019] | 6 | – | –
28003 (antisense AAAGCCATAGCCAGTTGC; DNA, all phosphorothioate, methylation of C not given here) [compound 28003] | – | 0 | –
27993 (antisense ATCCTTTGTATTTCTTTC; DNA, all phosphorothioate, methylation of C not given here) [compound 27993] | – | 15 | –
28036 (antisense eT*e[5mC]*eA*eA*dC*dT*dT*dC*dT*dT*dT*dT*dG*dC*e[5mC]*eG*eA*eA) [compound 28036] | 59 | – | –
28044 (antisense eA*e[5mC]*eA*eT*dT*dG*dA*dG*dG*dG*dA*dG*dT*dC*eG*eT*eT*eG) [compound 28044] | 0 | – | –
28056 (antisense e[5mC]*e[5mC]*eA*eA*dC*dA*dA*dA*dA*dC*dA*dG*dT*dC*e[5mC]*eA*eA*eA) [compound 28056] | 15 | – | –
28032 (antisense eT*eT*eT*e[5mC]*dT*dC*dA*dT*dT*dG*dC*dC*dT*dT*e[5mC]*eA*e[5mC]*eG) [compound 28032] | 35 | – | –
28049 (antisense e[5mC]*e[5mC]*eA*eG*dG*dC*dT*dA*dA*dA*dC*dC*dA*dG*eG*e[5mC]*eT*eG) [compound 28049] | 24 | – | –
